Results published in patent publication US20110003688A1, “Pesticidal Compound Mixtures” (Bayer CropScience AG, priority 2007, published 2011).

Key:
Format in all cases: in vivo
Conditions in all cases: mortality
[1] = test system: cotton aphid (Aphis gossypii); assay: Aphis gossypii test (sprayed infested cotton leaves)
Experimental: (§1) To produce a suitable preparation of active compound, 1 part by weight of active compound is mixed with the stated amount of solvent and emulsifier, and the concentrate is diluted with emulsifier-containing water to the desired concentration.
Cotton leaves (Gossypium hirsutum) which are heavily infested by the cotton aphid (Aphis gossypii) are treated by being sprayed with the preparation of the active compound at the desired concentration.
(§2) After the specified period of time, the mortality in % is determined. 100% means that all the aphids have been killed; 0% means that none of the aphids have been killed.

[2] = test system: green peach aphid (Myzus persicae); assay: Myzus persicae test (sprayed infested cabbage leaves)
Experimental: as §1
Cabbage leaves (Brassica oleracea) which are heavily infested by the green peach aphid (Myzus persicae) are treated by being sprayed with the preparation of the active compound at the desired concentration.
as §2

[3] = test system: larvae of the beet army worm (Spodoptera exigua); assay: Spodoptera exigua test (sprayed cabbage leaves infested with larvae)
Experimental: as §1
Cabbage leaves (Brassica oleracea) are treated by being sprayed with the preparation of the active compound at the desired concentration and are infested with larvae of the beet army worm (Spodoptera exigua) as long as the leaves are still moist.
(§3) After the specified period of time, the mortality in % is determined. 100% means that all the caterpillars have been killed; 0% means that none of the caterpillars have been killed.

[4] = test system: larvae of the fall army worm (Spodoptera frugiperda); assay: Spodoptera frugiperda test (sprayed cabbage leaves infested with larvae)
Experimental: as §1
Cabbage leaves (Brassica oleracea) are treated by being sprayed with the preparation of the active compound at the desired concentration and are infested with larvae of the fall army worm (Spodoptera frugiperda) as long as the leaves are still moist.
as §3

CC1(C)C(C=C(Cl)Cl)C1C(=O)OC(C#N)c1ccc(F)c(Oc2ccccc2)c1 (centres unmarked) [Cyfluthrin, cyfluthrin]
Efficacy in % after 1 day ([1]; 0.8 ppm): 25%

CC[S+]([O-])c1c(C#N)nn(-c2c(Cl)cc(C(F)(F)F)cc2Cl)c1N (centres unmarked) [Ethiprole, ethiprole]
Efficacy in % after 1 day ([2]; 4 ppm): 0%
Efficacy in % after 6 days ([2]; 4 ppm): 0%
Efficacy in % after 4 days ([3]; 0.8 ppm): 0%
Efficacy in % after 4 days ([4]; 4 ppm): 40%
Efficacy in % after 1 day ([1]; 4 ppm): 30%

CC1(C)[C@H](C(=O)O[C@H](C#N)c2cccc(Oc3ccccc3)c2)[C@@H]1/C=C(\Cl)C(F)(F)F [L-Cyhalothrin, lambda-cyhalothrin]
Efficacy in % after 6 days ([2]; 0.8 ppm): 45%

CC1(C)C(C=C(Cl)Cl)C1C(=O)OC(C#N)c1ccc(F)c(Oc2ccccc2)c1 (stereo not drawn) [β-Cyfluthrin, beta-cyfluthrin]
Efficacy in % after 6 days ([2]; 0.8 ppm): 75%

CC1(C)[C@H](C(=O)O[C@H](C#N)c2cccc(Oc3ccccc3)c2)[C@@H]1C=C(Br)Br [Deltamethrin, deltamethrin]
Efficacy in % after 1 day ([2]; 0.8 ppm): 50%
Efficacy in % after 4 days ([3]; 0.16 ppm): 0%
Efficacy in % after 4 days ([4]; 0.8 ppm): 70%
